Entries after “also recorded” stand apart in the source; their conditions may differ.
Legend:
annexin V [1] = biological target: T1, annexin V (Homo sapiens, UniProt P08758); experiment: calcium ion flux assay in artificial vesicles containing annexin V (Calcium Green fluorescence); type: biochemical; conditions: 180 ug/ml Annexin V, 100 ug/ml CII Peptide where present, 2 hours
T1 sequence (P08758 1-320): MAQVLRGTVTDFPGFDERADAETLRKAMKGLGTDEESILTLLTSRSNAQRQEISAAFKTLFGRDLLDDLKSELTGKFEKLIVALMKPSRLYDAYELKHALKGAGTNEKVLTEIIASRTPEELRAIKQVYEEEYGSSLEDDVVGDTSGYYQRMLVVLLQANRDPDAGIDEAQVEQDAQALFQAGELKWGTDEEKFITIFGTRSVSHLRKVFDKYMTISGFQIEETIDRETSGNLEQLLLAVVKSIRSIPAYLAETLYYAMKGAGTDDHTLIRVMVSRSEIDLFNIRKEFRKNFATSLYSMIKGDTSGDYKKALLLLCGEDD
Experimental: Artifical vesicles containing annexin were prepared according to methods known in the art. Specifically, vesicles were prepared by drying down lipids (Avanti Polar Lipids) with nitrogen overlay. Lipids were washed once in ether and further dried under vacuum overnight. Lipids were then sonicated on ice in NMDG Buffer (150 mM N Methyl D Glucamine, and 10 mM Hepes, adjusted to ph 7.4 with HCl, then diluted to 100 mOSM with water) containing 300μM Calcium Green dye (Molecular Probes). Extravesicular dye was removed by Biobead extraction for 20 minutes.
Vesicles were diluted 1:100 in NMDG Buffer, mixed with Annexin V with or without collagen fragments (CII peptide), and incubated for 2 hours. Ca^++ fluxes were measured according to Kaneko et al.. Fluorescence was measured in a 96 well plate using the Flipr plate reader.

embryonic avian tibias = experiment: LPS-induced cartilage degradation in tibia organ cultures; type: cell-based, Chick
Experimental: The purpose of this study was to test the ability of calcium channel blocker BDA to inhibit cartilage degradation in embryonic avian tibias maintained in organ culture in the presence of lipopolysaccharide (LPS). Chick tibiotarsi were removed from 12 day embryos and their tarsal regions removed. These bones were maintained in organ culture as previously described (26-28). Four bones were placed in each well of a 24-well plate and cultured in 1 ml of DMEM supplemented with 50 μg/ml ascorbate and 10 μg/ml LPS (E. coli serotype 0111 :B4, catalog #L-3012, Sigma, St. Louis). The culture medium with fresh supplements was changed every other day. BDA was dissolved in DMSO at a stock concentration of 2 mM. BDA was added to the culture medium on all feeding days and tested at two concentrations, 0.5 and 2 μM. Control cultures received an equivalent concentration of DMSO. The loss of cartilage from the embryonic bones was measured as the release of proteoglycans and collagen (hydroxyproline) into the culture medium. The spent culture medium was collected with each medium change. The proteoglycan content of the culture medium was determined by a dimethyl methylene blue dye-binding assay (25). The hydroxyproline was measured by a colorimetric assay in 96 well plates (29).

OP-1 = experiment: endogenous OP-1 in IL-1β challenged cartilage explants (western blot); type: cell-based, human
Experimental: Full thickness articular cartilage was dissected from load bearing regions of the femoral condyles of donors with no history of joint disease within 24 hours of death. Samples from men and women (age 50 to 76) were obtained from the Regional Organ Bank of Illinois as described above. After opening the joint, the surface of the cartilage was examined grossly. The appearance of each joint was given a grade based on the Collins scale (30) as modified by Muehleman et al (31).
Tissue explants (3×3 mm) were prepared as described above and were cultured in Dulbecco's modified Eagle's medium/Hams' F12 (1/1) containing 10 ml/L of Insulin Transferrin Selenium A (ITS, Gibco), 25 μg/ml ascorbate, and 50 μg/ml gentamicin. Experimental cultures contained either recombinant human IL-1β (Genzyme), BDA compound in DMSO, or a combination of IL-1β and BDA. ITS containing medium was used to reduce or eliminate serum-contained growth factors that could mask the released OP-1 or OP-1 degradation products and create nonspecific binding of the antibodies. To reach a steady state, cartilage explants were cultured in the absence of IL-1β or BDA for 4 days (or 96 hours) followed by two days (or 48 hours) of culture with IL-1β, BDA or both IL-1β and BDA. DMSO was added to the media control groups to account for a possible effect of DMSO.
Articular cartilage explants were briefly washed with 0.9% saline, homogenized and extracted in 1 M guanidine hydrochloride in the presence of proteinase inhibitors (0.1 M ε-aminocaproic acid, 0.05 M sodium acetate, 0.005 M EDTA, 0.005 M benzamidine chloride, 0.01 M N-ethylmaleimide, 0.0005 M phenymethanesulfonyl fluoride) at pH 7.4. Samples were extracted for 3 h in the refrigerator, and the extracts, together with the media, were dialyzed against water for 48 hours at 2-8° C., lyophilized and solubilized in sample buffer (0.01 M Tris HCl, pH 6.5, 1% sodium dodecyl sulfate (SDS), 10% glycerol, 0.016% bromphenol blue, 8 M urea, 0.2 M sodium chloride with (for the reduced conditions) or without (for non-reduced conditions) dithioerythritol added (DTT), pH 6.8). Cartilage extracts and media were analyzed by western blotting. All samples were normalized to the protein concentration. Protein concentrations was determined by a colorimetric assay, using BSA as a standard (Pierce, Rockford, Ill.).
Aliquots of samples (30 μg of protein per lane) were analyzed by electrophoresis and immunoblotting. Samples were loaded onto a 12% SDS-polyacrylamide gel (PAGE) in a buffer containing 0.2 M glycine, 25 mM Tris and 3.5 mM SDS. Proteins were transferred from SDS-PAGE gels onto nitrocellulose transfer membranes overnight at 20 V, 4-8° C. in a buffer containing 12 mM Tris (pH 7.4), 6 mM Na acetate, and 0.3 mM EDTA at pH 7.4. Immunoblot analyses was done using OP-1 antibodies. […]

annexin V [2] = biological target: T1, annexin V; conditions: liposomes; cited from earlier work
annexin III = biological target: T2, annexin III (Homo sapiens, UniProt P12429); conditions: liposomes; cited from earlier work
T2 sequence (P12429 1-323): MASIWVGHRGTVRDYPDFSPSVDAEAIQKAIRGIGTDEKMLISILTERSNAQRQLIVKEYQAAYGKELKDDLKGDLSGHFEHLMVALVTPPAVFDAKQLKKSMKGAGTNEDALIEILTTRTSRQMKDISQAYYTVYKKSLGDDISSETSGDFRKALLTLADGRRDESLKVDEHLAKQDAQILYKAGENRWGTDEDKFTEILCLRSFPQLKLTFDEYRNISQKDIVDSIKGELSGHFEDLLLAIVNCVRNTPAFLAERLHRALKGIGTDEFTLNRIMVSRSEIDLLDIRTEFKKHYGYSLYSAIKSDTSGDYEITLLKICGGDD

annexin I = biological target: T3, annexin I (Homo sapiens, UniProt P04083); conditions: liposomes; cited from earlier work
T3 sequence (P04083 1-346): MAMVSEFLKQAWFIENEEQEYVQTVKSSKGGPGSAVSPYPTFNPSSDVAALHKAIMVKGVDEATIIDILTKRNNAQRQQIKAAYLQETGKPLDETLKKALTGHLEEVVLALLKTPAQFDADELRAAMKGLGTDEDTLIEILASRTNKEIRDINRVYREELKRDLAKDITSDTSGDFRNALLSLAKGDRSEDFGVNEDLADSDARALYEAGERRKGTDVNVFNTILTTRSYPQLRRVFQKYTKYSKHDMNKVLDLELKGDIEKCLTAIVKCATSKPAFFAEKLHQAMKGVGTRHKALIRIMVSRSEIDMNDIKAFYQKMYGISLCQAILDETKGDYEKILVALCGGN

## Annexin V: calcium and phospholipid binding protein mixed with vesicles
Annexin V [1]; Lipid Ratio 65% PS/12.5% PC/12.5% PE/5% Chol
  Fluorescence (Calcium Signal): 29023
Annexin V [1]; Lipid Ratio 70% PS/12.5% PC/12.5% PE
  Fluorescence (Calcium Signal): 46454

## CN1C(=O)C(NC(=O)C(N)Cc2c[nH]c3ccccc23)C=C(c2ccccc2)c2ccccc21 (centres unmarked) [BDA]
Embryonic avian tibias; 0.5 μM, compared to DMSO carrier control
  LPS induced proteoglycan release to the culture medium: intermediate loss; also recorded: intermediate amount
Embryonic avian tibias; 0.5 μM, feeding day 15
  LPS induced collagen (hydroxyproline) release: intermediate degree of collagen release
Embryonic avian tibias; 2 μM
  LPS induced proteoglycan release to the culture medium: least release
Embryonic avian tibias; 2 μM, feeding day 15
  LPS induced collagen (hydroxyproline) release: least collagen loss
Embryonic avian tibias; 0.5 and 2 μM, dose dependence
  LPS induced cartilage loss (release of hydroxyproline or proteoglycan): dose-dependent inhibition
  LPS induced collagen (hydroxyproline) release: dose-dependent inhibition
  LPS induced proteoglycan release to the culture medium: dose-dependent inhibition
Embryonic avian tibias; LPS cultures
  size of the bone and cartilage at the end of the experiments: increased size of the bone and cartilage
OP-1; culture media
  release of pro-OP-1 domain: enhanced the release of pro-OP-1 domain
OP-1; day 2 of culture
  release of pro-OP-1 into culture media: dramatic release of pro-OP-1
OP-1; human cartilage explants, IL-1 culture, 48 hours
  content of endogenous OP-1 in cartilage: increase in the content of endogenous OP-1; also recorded: increase in the content of endogenous anabolic factor
OP-1; human cartilage under catabolic conditions
  processing of endogenous OP-1 from pro- into mature form: processing of cartilage endogenous OP-1 from pro- into mature form

## CN1C(=O)CN=C(c2ccccc2)c2ccccc21 [BDA 250, 1,3-dihydro-1-methyl-5-phenyl-2H-1,4-benzodiazepine-2-one]
Annexin V [2]
  calcium fluxes induced by annexin V: no effect
Annexin III
  calcium fluxes induced by annexin III: inhibited
Annexin I
  calcium fluxes induced by annexin I: inhibited

From US6649366B2, “Methods and compositions related to modulators of annexin and cartilage homeostasis” (SmithKline Beecham Corporation, priority 1999, dated 2003)
